Laboratory results taken from patent US20230112845A1, “COMPOSITIONS OF BERBERINE URSODE[…] METHODS THEREOF FOR TREATING FATTY LIVER DISEASE, DIABETES AND HYPERLIPIDEMIA” (SHENZHEN HIGHTIDE BIOPHARMACEUTICAL LTD., priority 2020, published 2023).
Entries after “also recorded” stand apart in the source; their conditions may differ.

Experiments:
[1] = system: patients with presumed NASH and type 2 diabetes; assay: Phase 2 trial: adverse events, safety and tolerability; assay type: in vivo, human; settings: for Subjects with TEAEs Related to Study Drug: Diarrhea, number (%) / Subjects with TEAEs Related to Study Drug: GERD, number (%) / Subjects with TEAEs Related to Study Drug: Nausea, number (%) / Subjects with TEAEs requiring discontinuation of study drug: Abdominal distension, number (%) / Subjects with TEAEs requiring discontinuation of study drug: Acute myocardial infarction, number (%) / Subjects with TEAEs requiring discontinuation of study drug: Diarrhea, number (%) / Subjects with TEAEs requiring discontinuation of study drug: GERD, number (%) / Subjects with TEAEs requiring discontinuation of study drug: Headache and Facial Rash, number (%) / Subjects with TEAEs requiring discontinuation of study drug: Melena, number (%): placebo 0; for Subjects with TEAEs Related to Study Drug: Headache, number (%) / Subjects with TEAEs requiring discontinuation of study drug: Bladder Cancer, number (%): placebo 1 (3%)
Protocol: A prospective, randomized, placebo-controlled trial of two doses of BUDCA administered orally was conducted in a cohort of 100 subjects with fatty liver disease and diabetes. Treatment was for 18 weeks and endpoints measured included reduction in liver fat content measured by […] proton density fat fraction, improvement in glycemic control, changes in liver-associated enzymes, safety and tolerability.
Patients with diabetes and presumed NASH were randomized into one of three treatment groups, as follows: 1) BUDCA 500 mg BID 2) 1,000 mg BID and 3) matching placebo. Presumed NASH was defined based largely on magnetic resonance imaging derived proton density fat fraction (MRI-PDFF) of 10% or more. Additional inclusion criteria further enriched the study population for having NASH by virtue of requiring corrected T1 (cT1) of more than 830 milliseconds and elevated serum aspartate aminotransferase (AST)≥20 units per liter (6). Subjects had to be overweight or obese with body mass index of 25 kg/m^2 or more.
Descriptive Statistics were used to summarize continuous data, and frequencies and percentages were used to summarize categorical data. The Safety Set consisted of all subjects who received at least one dose of study treatment. The Modified Efficacy Set is a subset of the Safety Set consisting of subjects that had at least one post-dose MRI-PDFF assessment. […] The primary endpoint was an absolute change from Baseline to Week 18 (or ET) in Liver Fat Content. Primary Endpoint summary measures were provided in both the Efficacy and Modified Efficacy sets, with the Efficacy Set prespecified as the primary analysis set. All other endpoints were prespecified to use the Modified Efficacy Set. Comparisons between active treatment groups relative to placebo were tested using Analysis of Covariance (ANCOVA) with treatment group as a fixed effect and baseline value of the parameters of interest as covariates. ANCOVA based LS Means and raw means have been reported. For statistical analysis of laboratory parameters (i.e. P-values), multiple imputation was used to take missing data into account. A two-sided alpha level of 0.05 without adjustment for multiple tests was used to indicate statistical significance. Analyses were performed using SAS System version 9.4.

[2] = system: subjects with a history of hypercholesterolemia; assay: Phase 1b study: safety and tolerability; assay type: in vivo, human; settings: 28 days
Protocol: A double-blind, randomized, placebo-controlled, dose ranging study was carried out that compared three doses of berberine ursodeoxycholate (BUDCA, a.k.a. HTD1801) to placebo in a cohort of subjects with a history of hypercholesterolemia and serum LDL-c levels above 2.59 mmol/L (>99.9 mg/dL). BUDCA was administered in two divided doses each day for 28 days. The primary endpoints of the study were safety and tolerability of this new compound, as well as its effect in lowering serum lipid and lipoprotein concentrations.
Subjects underwent an initial assessment and were then randomized to receive ascending doses of BUDCA in three sequential dosing groups: Group I received 500 mg/day of BUDCA or matching placebo in a ratio of 3:1. Group II received 1,000 mg/day of BUDCA or placebo, 3:1 and Group III received 2,000 mg/day BUDCA or placebo, 3:1. Study medication or placebo was given in two equal doses daily for 28 days. […]
The groups were enrolled sequentially, but follow-up overlapped (the next cohort could begin during the follow-up period of the prior cohort) (FIG. 1). The decision to move to the next dose level was based upon tolerability and safety findings, as assessed by a Safety Monitoring Committee. […] After having vital signs measured and baseline laboratory tests taken, the subject was given a morning meal and then observed while taking their first dose of BUDCA with a glass of water. […]

COc1ccc2cc3[n+](cc2c1OC)CCc1cc2c(cc1-3)OCO2.C[C@H](CCC(=O)[O-])[C@H]1CC[C@H]2[C@@H]3[C@@H](O)C[C@@H]4C[C@H](O)CC[C@]4(C)[C@H]3CC[C@]12C [BUDCA, berberine ursodeoxycholate]
tolerability ([1]; 500 mg BID and 1,000 mg BID, 18 weeks): generally well tolerated; also recorded: relatively well tolerated
Subjects with TEAEs Related to Study Drug: Diarrhea, number (%) ([1]; 500 mg BID, N = 33): 4 (12%)
Subjects with TEAEs Related to Study Drug: GERD, number (%) ([1]; 500 mg BID, N = 33): 2 (6%)
Subjects with TEAEs Related to Study Drug: Nausea, number (%) ([1]; 500 mg BID, N = 33): 1 (3%)
Subjects with TEAEs requiring discontinuation of study drug: Abdominal distension, number (%) ([1]; 500 mg BID, N = 33): 0
Subjects with TEAEs requiring discontinuation of study drug: Acute myocardial infarction, number (%) ([1]; 500 mg BID, N = 33): 0
Subjects with TEAEs requiring discontinuation of study drug: Diarrhea, number (%) ([1]; 500 mg BID, N = 33): 0
Subjects with TEAEs requiring discontinuation of study drug: GERD, number (%) ([1]; 500 mg BID, N = 33): 1 (3%)
Subjects with TEAEs requiring discontinuation of study drug: Headache and Facial Rash, number (%) ([1]; 500 mg BID, N = 33): 0
Subjects with TEAEs requiring discontinuation of study drug: Melena, number (%) ([1]; 500 mg BID, N = 33): 0
Subjects with TEAEs Related to Study Drug: Headache, number (%) ([1]; 500 mg BID, N = 33): 2 (6%)
Subjects with TEAEs requiring discontinuation of study drug: Bladder Cancer, number (%) ([1]; 500 mg BID, N = 33): 0
Subjects with TEAEs Related to Study Drug: Diarrhea, number (%) ([1]; 1,000 mg BID, N = 34): 9 (26%)
Subjects with TEAEs Related to Study Drug: GERD, number (%) ([1]; 1,000 mg BID, N = 34): 0
Subjects with TEAEs Related to Study Drug: Nausea, number (%) ([1]; 1,000 mg BID, N = 34): 5 (15%)
Subjects with TEAEs requiring discontinuation of study drug: Abdominal distension, number (%) ([1]; 1,000 mg BID, N = 34): 1 (3%)
Subjects with TEAEs requiring discontinuation of study drug: Acute myocardial infarction, number (%) ([1]; 1,000 mg BID, N = 34): 1 (3%)
Subjects with TEAEs requiring discontinuation of study drug: Diarrhea, number (%) ([1]; 1,000 mg BID, N = 34): 2 (6%)
Subjects with TEAEs requiring discontinuation of study drug: GERD, number (%) ([1]; 1,000 mg BID, N = 34): 1 (3%)
Subjects with TEAEs requiring discontinuation of study drug: Headache and Facial Rash, number (%) ([1]; 1,000 mg BID, N = 34): 2 (6%)
Subjects with TEAEs requiring discontinuation of study drug: Melena, number (%) ([1]; 1,000 mg BID, N = 34): 1 (3%)
Subjects with TEAEs Related to Study Drug: Headache, number (%) ([1]; 1,000 mg BID, N = 34): 1 (3%)
Subjects with TEAEs requiring discontinuation of study drug: Bladder Cancer, number (%) ([1]; 1,000 mg BID, N = 34): 0
serious adverse event in the high dose group, relation to study drug ([1]; 1,000 mg BID, one serious adverse event): not related to the study drug
frequency of treatment-related adverse events ([2]; active drug, all doses, placebo 66%): 67%
tolerability ([2]; up to 2,000 mg per day): generally well tolerated
